These are literature values, as cited in patent publication US20140093564A1, “PHARMACEUTICAL COMPOSITIONS OF COMBINATIONS OF DIPEPTIDYL PEPTIDASE-4 INHIBITORS WITH SIMVASTATIN” (MERCK SHARP & DOHME LTD., priority 2011, published 2014).

Molecules are shown by their SMILES.

The conditions of the series: oral administration, human Type 2 diabetics.

With `N#C[C@@H]1CCCN1C(=O)CNC12CC3CC(CC(O)(C3)C1)C2` [vildagliptin, (S)-1-[(3-hydroxy-1-adamantyl)amino]acetyl-2-cyano-pyrrolidine], the HbA1c levels entry is reported as “significantly reduced”, the fasting glucose result was “reduce” and the postprandial glucose excursion result was “reduce”.
In the case of `N[C@@H](CC(=O)N1CCn2c(nnc2C(F)(F)F)C1)Cc1cc(F)c(F)cc1F` [sitagliptin, (2R)-4-oxo-4-[3-(trifluoromethyl)-5,6-dihydro[1,2,4]triazolo[4,3-α]pyrazin-7(8H)-yl]-1-(2,4,5-trifluorophenyl)butan-2-amine], the HbA1c levels entry is “significantly reduced”, the fasting glucose result is on record as “reduce” and the postprandial glucose excursion entry is given as “reduce”.
